Patent US12371428B2 (Exelixis, Inc., priority 2019, dated 2025)

Assays:
[1] = molecular target: Met (phospho-Met, HGF-stimulated PC-3 prostate cancer cells) (Homo sapiens (Human), UniProt P08581); experiment: Met autophosphorylation ELISA in PC-3 cells (Example F); assay type: cell-based; details: cellular activity; Met autophosphorylation ELISA in PC-3 cells; read-out: c-Met IC50
Method in brief: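 PC-3 cells, serum-starved 3 h, were treated with compounds (8-point dose curve, 0.3% DMSO final) for 1 h, then stimulated with 100 ng/mL recombinant human HGF for 10 min. Lysate phospho-Met (panTyr) was quantified by sandwich ELISA; IC50 from 4-parameter logistic fit.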

[2] = molecular target: Mer (phospho-Mer, MERTK-transfected 293A cells) (Homo sapiens (Human), UniProt Q12866); experiment: Mer autophosphorylation ELISA in transient transfected 293A cells (Example H); assay type: cell-based; details: cellular activity; Mer autophosphorylation ELISA in transient transfected 293A cells
Method in brief: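 IC50 from phospho-Mer ELISA of MERTK-transfected 293A cell lysates after 1 h treatment with serially diluted compound in serum-free medium.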

Chain of Met (phospho-Met, HGF-stimulated PC-3 prostate cancer cells) (P08581 25-1390): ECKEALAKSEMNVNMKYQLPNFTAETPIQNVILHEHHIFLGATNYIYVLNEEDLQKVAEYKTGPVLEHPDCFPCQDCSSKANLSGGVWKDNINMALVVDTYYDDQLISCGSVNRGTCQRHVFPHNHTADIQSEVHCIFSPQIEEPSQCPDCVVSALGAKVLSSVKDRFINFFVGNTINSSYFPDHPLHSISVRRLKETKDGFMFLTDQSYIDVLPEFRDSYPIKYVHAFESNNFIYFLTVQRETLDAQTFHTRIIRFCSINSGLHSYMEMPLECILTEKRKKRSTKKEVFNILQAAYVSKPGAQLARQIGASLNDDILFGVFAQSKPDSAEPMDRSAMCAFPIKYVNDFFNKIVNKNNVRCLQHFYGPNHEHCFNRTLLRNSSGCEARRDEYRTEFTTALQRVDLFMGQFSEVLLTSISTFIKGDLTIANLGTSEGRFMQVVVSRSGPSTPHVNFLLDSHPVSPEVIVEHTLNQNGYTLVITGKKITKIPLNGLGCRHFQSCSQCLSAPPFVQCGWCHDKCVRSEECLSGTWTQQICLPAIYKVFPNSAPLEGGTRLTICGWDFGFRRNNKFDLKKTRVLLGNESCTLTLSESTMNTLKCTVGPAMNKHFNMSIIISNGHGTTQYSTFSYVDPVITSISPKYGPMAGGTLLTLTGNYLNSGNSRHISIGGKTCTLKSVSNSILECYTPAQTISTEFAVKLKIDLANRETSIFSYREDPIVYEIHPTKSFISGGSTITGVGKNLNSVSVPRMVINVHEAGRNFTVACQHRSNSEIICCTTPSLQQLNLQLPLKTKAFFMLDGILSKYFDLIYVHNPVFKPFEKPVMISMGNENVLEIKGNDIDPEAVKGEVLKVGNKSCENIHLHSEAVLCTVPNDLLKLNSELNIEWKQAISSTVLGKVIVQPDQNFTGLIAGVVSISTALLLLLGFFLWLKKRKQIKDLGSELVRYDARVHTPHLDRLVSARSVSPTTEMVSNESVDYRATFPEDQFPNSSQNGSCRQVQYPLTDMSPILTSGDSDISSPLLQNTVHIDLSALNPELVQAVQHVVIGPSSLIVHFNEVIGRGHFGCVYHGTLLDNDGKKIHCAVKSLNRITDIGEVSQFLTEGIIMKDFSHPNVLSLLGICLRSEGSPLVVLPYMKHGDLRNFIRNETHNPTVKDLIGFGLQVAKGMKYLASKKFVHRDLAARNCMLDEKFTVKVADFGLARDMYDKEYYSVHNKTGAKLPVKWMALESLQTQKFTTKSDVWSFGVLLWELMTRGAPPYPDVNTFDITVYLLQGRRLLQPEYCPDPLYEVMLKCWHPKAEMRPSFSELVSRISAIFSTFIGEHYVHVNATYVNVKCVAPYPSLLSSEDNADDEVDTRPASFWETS
Chain of Mer (phospho-Mer, MERTK-transfected 293A cells) (Q12866 21-999): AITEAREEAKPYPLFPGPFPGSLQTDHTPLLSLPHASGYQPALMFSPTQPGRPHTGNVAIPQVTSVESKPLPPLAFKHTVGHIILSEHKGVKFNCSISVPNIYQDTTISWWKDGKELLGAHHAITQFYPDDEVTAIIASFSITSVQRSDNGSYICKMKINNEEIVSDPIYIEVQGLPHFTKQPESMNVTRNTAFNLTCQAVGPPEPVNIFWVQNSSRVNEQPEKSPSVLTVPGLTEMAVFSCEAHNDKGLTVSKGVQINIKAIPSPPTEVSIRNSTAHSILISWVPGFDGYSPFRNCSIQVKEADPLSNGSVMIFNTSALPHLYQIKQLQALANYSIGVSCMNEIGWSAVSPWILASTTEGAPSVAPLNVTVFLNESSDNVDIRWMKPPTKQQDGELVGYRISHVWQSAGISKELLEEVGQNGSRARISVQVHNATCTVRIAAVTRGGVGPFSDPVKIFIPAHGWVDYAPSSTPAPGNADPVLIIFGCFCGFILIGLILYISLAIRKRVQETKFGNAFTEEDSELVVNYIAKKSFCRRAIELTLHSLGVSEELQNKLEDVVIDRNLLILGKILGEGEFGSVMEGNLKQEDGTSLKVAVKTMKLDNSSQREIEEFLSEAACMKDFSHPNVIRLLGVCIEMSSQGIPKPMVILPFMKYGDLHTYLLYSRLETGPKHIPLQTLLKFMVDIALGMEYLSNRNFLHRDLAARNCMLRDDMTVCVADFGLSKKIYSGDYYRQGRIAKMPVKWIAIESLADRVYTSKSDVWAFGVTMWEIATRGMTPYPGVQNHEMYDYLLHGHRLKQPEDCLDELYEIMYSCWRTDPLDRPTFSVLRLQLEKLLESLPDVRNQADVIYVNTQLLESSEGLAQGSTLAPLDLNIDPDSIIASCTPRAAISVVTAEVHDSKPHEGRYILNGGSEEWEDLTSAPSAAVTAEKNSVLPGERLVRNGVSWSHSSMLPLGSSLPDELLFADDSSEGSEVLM

IC50 [1] [µM]	IC50 [2] [µM]	Structure (SMILES)
< 0.1	< 0.1	COc1cc2nccc(Oc3ccc(NC(=O)c4c(C)nc(C)c(-c5ccc(F)cc5)c4O)cc3)c2nc1OC [Compound 173, N-[4-[(6,7-Dimethoxy-1,5-naphthyridin-4-yl)oxy]phenyl]-5-(4-fluorophenyl)-4-hydroxy-2,6-dimethylpyridine-3-carboxamide]
< 0.1	< 0.1	COc1cc2nccc(Oc3ccc(NC(=O)c4cnc(C)c(-c5ccc(F)cc5C)c4O)cc3)c2nc1OC [Compound 174, N-[4-[(6,7-Dimethoxy-1,5-naphthyridin-4-yl)oxy]phenyl]-5-(4-fluoro-2-methylphenyl)-4-hydroxy-6-methylpyridine-3-carboxamide]
< 0.1	< 0.1	COc1cnc2c(Oc3ccc(NC(=O)c4cnc(C)c(-c5ccc(F)cc5C)c4O)cc3F)ccnc2c1 [Compound 175, N-[3-Fluoro-4-[(7-methoxy-1,5-naphthyridin-4-yl)oxy]phenyl]-5-(4-fluoro-2-methylphenyl)-4-hydroxy-6-methylpyridine-3-carboxamide]
< 0.1	< 0.1	COc1cc2nccc(Oc3ccc(NC(=O)c4cnc(N)n(-c5ccc(F)cc5)c4=O)cc3F)c2nc1OC [Compound 565, 2-Amino-N-[4-[(6,7-dimethoxy-1,5-naphthyridin-4-yl)oxy]-3-fluorophenyl]-1-(4-fluorophenyl)-6-oxopyrimidine-5-carboxamide]
< 0.1	< 0.1	CCn1nc(C(=O)Nc2ccc(Oc3ccnc4cc(OC)c(OC)nc34)c(F)c2)c(=O)c(-c2ccc(F)cc2)c1C [Compound 568, N-[4-[(6,7-Dimethoxy-1,5-naphthyridin-4-yl)oxy]-3-fluorophenyl]-1-ethyl-5-(4-fluorophenyl)-6-methyl-4-oxopyridazine-3-carboxamide]
< 0.1	0.1 to 0.3	Cc1ncc(C(=O)Nc2ccc(Oc3ccnc4cc(C(N)=O)cnc34)c(F)c2)c(O)c1-c1ccc(F)cc1 [Compound 577, 8-[2-Fluoro-4-[[5-(4-fluorophenyl)-4-hydroxy-6-methylpyridine-3-carbonyl]amino]phenoxy]-1,5-naphthyridine-3-carboxamide]
> 0.3	> 0.3	CNC(=O)c1cnc2c(Oc3ccc(NC(=O)c4cnc(C)c(-c5ccc(F)cc5)c4O)cc3F)ccnc2c1 [Compound 578, 8-[2-Fluoro-4-[[5-(4-fluorophenyl)-4-hydroxy-6-methylpyridine-3-carbonyl]amino]phenoxy]-N-methyl-1,5-naphthyridine-3-carboxamide]
< 0.1	< 0.1	COc1cc2nccc(Oc3ccc(NC(=O)c4cn(C(C)C)c(C)c(-c5ccc(F)cc5)c4=O)cc3F)c2nc1N [Compound 579, N-[4-[(6-Amino-7-methoxy-1,5-naphthyridin-4-yl)oxy]-3-fluorophenyl]-5-(4-fluorophenyl)-6-methyl-4-oxo-1-propan-2-ylpyridine-3-carboxamide]

More lines, now with the values behind:

Structure (SMILES)	IC50 [1] [µM]	IC50 [2] [µM]
COc1cnc2c(Oc3ccc(NC(=O)c4cn(C)c(C)c(-c5ccc(F)cc5)c4=O)cc3F)ccnc2c1 [Compound 156, N-[3-Fluoro-4-[(7-methoxy-1,5-naphthyridin-4-yl)oxy]phenyl]-5-(4-fluorophenyl)-1,6-dimethyl-4-oxopyridine-3-carboxamide]	< 0.1	< 0.1
COc1cc2nccc(Oc3ccc(NC(=O)c4cn(CCN5CCOCC5)cc(-c5ccc(F)cc5)c4=O)cc3F)c2nc1OC [Compound 157, N-[4-[(6,7-Dimethoxy-1,5-naphthyridin-4-yl)oxy]-3-fluorophenyl]-5-(4-fluorophenyl)-1-(2-morpholin-4-ylethyl)-4-oxopyridine-3-carboxamide]	< 0.1	< 0.1
Cc1c(-c2ccc(F)cc2)c(=O)c(C(=O)Nc2ccc(Oc3ccnc4cc(F)cnc34)c(F)c2)cn1C(C)C [Compound 162, N-[3-Fluoro-4-[(7-fluoro-1,5-naphthyridin-4-yl)oxy]phenyl]-5-(4-fluorophenyl)-6-methyl-4-oxo-1-propan-2-ylpyridine-3-carboxamide]	0.1 to 0.3	< 0.1
CCn1cc(C(=O)Nc2ccc(Oc3ccnc4cc(OC)cnc34)cc2)c(=O)c(-c2ccc(F)cc2)c1C [Compound 163, 1-Ethyl-5-(4-fluorophenyl)-N-[4-[(7-methoxy-1,5-naphthyridin-4-yl)oxy]phenyl]-6-methyl-4-oxopyridine-3-carboxamide]	< 0.1	< 0.1
CCn1cc(C(=O)Nc2ccc(Oc3ccnc4cc(OC)cnc34)c(F)c2)c(=O)c(-c2ccc(F)cc2)c1C [Compound 164, 1-Ethyl-N-[3-fluoro-4-[(7-methoxy-1,5-naphthyridin-4-yl)oxy]phenyl]-5-(4-fluorophenyl)-6-methyl-4-oxopyridine-3-carboxamide]	< 0.1	< 0.1
COc1cnc2c(Oc3ccc(NC(=O)c4cn(C(C)(C)C)c(C)c(-c5ccc(F)cc5)c4=O)cc3F)ccnc2c1 [Compound 166, 1-tert-Butyl-N-[3-fluoro-4-[(7-methoxy-1,5-naphthyridin-4-yl)oxy]phenyl]-5-(4-fluorophenyl)-6-methyl-4-oxopyridine-3-carboxamide]	< 0.1	< 0.1
CCn1cc(C(=O)Nc2ccc(Oc3ccnc4cc(OC)c(OC)nc34)cc2)c(=O)c(-c2ccc(F)cc2)c1 [Compound 167, N-[4-[(6,7-Dimethoxy-1,5-naphthyridin-4-yl)oxy]phenyl]-1-ethyl-5-(4-fluorophenyl)-4-oxopyridine-3-carboxamide]	< 0.1	< 0.1
CCn1cc(C(=O)Nc2ccc(Oc3ccnc4cc(OC)c(OC)nc34)cc2)c(=O)c(-c2ccc(F)cc2)c1C [Compound 168, N-[4-[(6,7-Dimethoxy-1,5-naphthyridin-4-yl)oxy]phenyl]-1-ethyl-5-(4-fluorophenyl)-6-methyl-4-oxopyridine-3-carboxamide]	< 0.1	< 0.1
CCn1cc(C(=O)Nc2ccc(Oc3ccnc4cc(OC)cnc34)cc2)c(=O)c(-c2ccc(F)cc2)c1 [Compound 169, 1-Ethyl-5-(4-fluorophenyl)-N-[4-[(7-methoxy-1,5-naphthyridin-4-yl)oxy]phenyl]-4-oxopyridine-3-carboxamide]	< 0.1	< 0.1
CCn1cc(C(=O)Nc2ccc(Oc3ccnc4cc(OC)cnc34)c(F)c2)c(=O)c(-c2ccc(F)cc2)c1 [Compound 170, 1-Ethyl-N-[3-fluoro-4-[(7-methoxy-1,5-naphthyridin-4-yl)oxy]phenyl]-5-(4-fluorophenyl)-4-oxopyridine-3-carboxamide]	< 0.1	< 0.1
COc1cc2nccc(Oc3ccc(NC(=O)c4cnc(C)c(-c5ccc(F)cc5)c4O)cc3)c2cc1OC [Compound 171, N-[4-(6,7-Dimethoxyquinolin-4-yl)oxyphenyl]-5-(4-fluorophenyl)-4-hydroxy-6-methylpyridine-3-carboxamide]	< 0.1	< 0.1
COc1ccc2nccc(Oc3ccc(NC(=O)c4cnc(C)c(-c5ccc(F)cc5)c4O)cc3F)c2n1 [Compound 172, N-[3-Fluoro-4-[(6-methoxy-1,5-naphthyridin-4-yl)oxy]phenyl]-5-(4-fluorophenyl)-4-hydroxy-6-methylpyridine-3-carboxamide]	< 0.1	< 0.1
